Data from patent US20200182861A1, “METHOD FOR DIFFERENTIATION OF PLURIPOTENT STEM CELLS INTO VASCULAR BED CELLS” (Hoffmann-La Roche Inc., priority 2011, published 2020).

What was measured:
[1] = tested on: ICAM1; assay: Pro-inflammatory cytokine response assay, cell-based ELISA; set-up: species or system human; conditions: 1 nM, SC-derived ECs
Experimental: FIG. 15A: Pro-inflammatory cytokine response assay. SC-derived ECs upregulate the expression of the adhesion molecule ICAM1 upon pro-inflammatory cytokine administration. Cell-based ELISA was used to measure the activation of SC-derived endothelial cells in response to 1 nM TNFα.
(§1) 20 000 Stem Cell-derived endothelial cells/well were seeded onto 96-well plates and cultured for 2 days in EGM-2 medium (Lonza) until confluence. Media was changed with EGM-2 medium supplemented with 1 nM TNFα (R&D Systems). After an incubation of 24 hours SC-derived ECs were briefly PBS-washed and PFA-fixed Primary antibodies for human anti-ICAM and anti-E-Selectin were purchased from R&D Systems. An anti-mouseIgG/biotinylated (Amersham) as secondary antibody and a Streptavidin/Peroxidase complex (Amersham) were used. Luminescence was quantified in a microplate reader.

[2] = tested on: E-SELECTIN; assay: as above; set-up: species or system human; conditions: 1 nM, SC-derived ECs
Experimental: FIG. 15B: Pro-inflammatory cytokine response assay. SC-derived ECs upregulate the expression of the adhesion molecule E-SELECTIN upon pro-inflammatory cytokine administration. Cell-based ELISA was used to measure the activation of SC-derived endothelial cells in response to 1 nM TNFα.
as §1

[3] = tested on: HL60 cells with SC-derived ECs; assay: Leukocyte-endothelial adhesion assay; assay type: cell-based, human; conditions: SC-derived ECs stimulated, 1 nM
Experimental: FIG. 16: Leukocyte-endothelial adhesion assay. Activated endothelial cells present adhesion molecules for the recruitment leukocytes. The response to 1 nM TNFα was studied by co-cultivating Calcein-stained HL60 cells with SC-derived ECs. Adhesion of HL60 cells to endothelial cells was quantified by measuring the fluorescence intensity.
2×10^4 Stem Cell-derived endothelial cells/well were seeded onto 96-well plates and cultured for 2 days in EGM-2 medium (Lonza) until confluence. Media was changed with EGM-2 medium supplemented with 1 nM TNFα (R&D Systems). SC-derived ECs were TNFα-stimulated for 4 hours. Thereafter 1.5×10^5 Calcein-labeled HL60 cells were added to each 96 well. After an incubation of one hour medium was removed and Sc-ECs were PBS-washed. Lyse the plate with 1% NP-40 detergent solution for 15 minutes. Supernatants were transferred into optiplates and fluorescence measured in a microplate reader.
To determine whether the differentiation system generates bona fide ECs, we challenged the SC-derived ECs with proinflammatory cytokines and analyzed for an activated expression of effectors of immune cell migration. […] We further confirmed by flow cytometry the presence of ICAM1 and E-SELECTIN upon TNF-α as well as […] stimulation (FIG. 16). HLA-ABC expression served as control to analyze a general und cell type unspecific response to proinflammatory cytokines. […]

TNFα
ICAM1 expression [1]: significantly upregulated
E-SELECTIN expression [2]: significantly upregulated
adhesion / recruitment of HL60 leukocytes [3]: significantly enhanced
